From patent US11078202B2, “β-lactamase inhibitor and use thereof” (priority 2018, dated 2021)
Where a name gives a salt, the structure may show the parent alone.

Key:
Type in all cases: cell-based
[1] = tested on: Acinetobacter baumannii XNWB 0007; experiment: MIC assay of test compounds combined with ceftazidime (8 μg/mL); conditions: ceftazidime 8 μg/mL fixed
Outline: (§1)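 Strains grown on TSA, colonies suspended to OD600 0.1-0.15, diluted 300-fold in CAMHB; compound dilutions combined with fixed ceftazidime or imipenem at concentrations given in assay names. Incubated 16-20 h at 35±2 °C; MIC read per CLSI guidelines, with growth and sterility controls.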

[2] = tested on: Klebsiella pneumoniae XNWB 0001; experiment: as above; conditions: ceftazidime 8 μg/mL fixed
Outline: as §1

[3] = tested on: Klebsiella pneumoniae XNWB 0002; experiment: as above; conditions: ceftazidime 8 μg/mL fixed
Outline: as §1

[4] = tested on: Klebsiella pneumoniae XNWB 0003; experiment: as above; conditions: ceftazidime 8 μg/mL fixed
Outline: as §1

[5] = tested on: Klebsiella pneumoniae XNWB 0004; experiment: as above; conditions: ceftazidime 8 μg/mL fixed
Outline: as §1

[6] = tested on: Klebsiella pneumoniae XNWB 0005; experiment: as above; conditions: ceftazidime 8 μg/mL fixed
Outline: as §1

[7] = tested on: Klebsiella pneumoniae XNWB 0006; experiment: as above; conditions: ceftazidime 8 μg/mL fixed
Outline: as §1

[8] = tested on: Pseudomonas aeruginosa XNWB 0008; experiment: as above; conditions: ceftazidime 8 μg/mL fixed
Outline: as §1

[9] = tested on: Acinetobacter baumannii XNWB 0007; experiment: MIC assay of test compounds combined with imipenem (4 μg/mL); conditions: imipenem 4 μg/mL fixed
Outline: as §1

[10] = tested on: Klebsiella pneumoniae XNWB 0001; experiment: as above; conditions: imipenem 4 μg/mL fixed
Outline: as §1

[11] = tested on: Klebsiella pneumoniae XNWB 0002; experiment: as above; conditions: imipenem 4 μg/mL fixed
Outline: as §1

[12] = tested on: Klebsiella pneumoniae XNWB 0003; experiment: as above; conditions: imipenem 4 μg/mL fixed
Outline: as §1

[13] = tested on: Klebsiella pneumoniae XNWB 0004; experiment: as above; conditions: imipenem 4 μg/mL fixed
Outline: as §1

[14] = tested on: Klebsiella pneumoniae XNWB 0005; experiment: as above; conditions: imipenem 4 μg/mL fixed
Outline: as §1

[15] = tested on: Klebsiella pneumoniae XNWB 0006; experiment: as above; conditions: imipenem 4 μg/mL fixed
Outline: as §1

[16] = tested on: Pseudomonas aeruginosa XNWB 0008; experiment: as above; conditions: imipenem 4 μg/mL fixed
Outline: as §1

Row | Structure (SMILES) | The minimum concentration of test compounds combined with ceftazidime (8 μg/mL) for bacteriostasis [1] | The minimum concentration of test compounds combined with ceftazidime (8 μg/mL) for bacteriostasis [2] | The minimum concentration of test compounds combined with ceftazidime (8 μg/mL) for bacteriostasis [3] | The minimum concentration of test compounds combined with ceftazidime (8 μg/mL) for bacteriostasis [4] | The minimum concentration of test compounds combined with ceftazidime (8 μg/mL) for bacteriostasis [5] | The minimum concentration of test compounds combined with ceftazidime (8 μg/mL) for bacteriostasis [6] | The minimum concentration of test compounds combined with ceftazidime (8 μg/mL) for bacteriostasis [7] | The minimum concentration of test compounds combined with ceftazidime (8 μg/mL) for bacteriostasis [8] | The minimum concentration of test compounds combined with imipenem (4 μg/mL) for bacteriostasis [9] | The minimum concentration of test compounds combined with imipenem (4 μg/mL) for bacteriostasis [10] | The minimum concentration of test compounds combined with imipenem (4 μg/mL) for bacteriostasis [11] | The minimum concentration of test compounds combined with imipenem (4 μg/mL) for bacteriostasis [12] | The minimum concentration of test compounds combined with imipenem (4 μg/mL) for bacteriostasis [13] | The minimum concentration of test compounds combined with imipenem (4 μg/mL) for bacteriostasis [14] | The minimum concentration of test compounds combined with imipenem (4 μg/mL) for bacteriostasis [15] | The minimum concentration of test compounds combined with imipenem (4 μg/mL) for bacteriostasis [16]
1 | N=C(N)NC[C@@H](O)c1cc([C@@H]2CC3(CC3)[C@@H]3CN2C(=O)N3OS(=O)(=O)O)no1 [Example 40, (1R,4S)-4-(5-((R)-2-guanidyl-1-hydroxyethyl)isoxazol-3-yl)-6-oxo-5,7-diazaspiro [bicyclo[3.2.1]octane-2,1′-cyclopropan]-7-yl sulfate] | C (C: 16-128 μg/mL) | A (A: <8 μg/mL) | A (A: <8 μg/mL) | A (A: <8 μg/mL) | A (A: <8 μg/mL) | A (A: <8 μg/mL) | A (A: <8 μg/mL) | B (B: 8-16 μg/mL) | C (C: 16-128 μg/mL) | A (A: <8 μg/mL) | A (A: <8 μg/mL) | A (A: <8 μg/mL) | A (A: <8 μg/mL) | A (A: <8 μg/mL) | A (A: <8 μg/mL) | A (A: <8 μg/mL)
2 | CN(CCc1cc([C@@H]2CC3(CC3)[C@@H]3CN2C(=O)N3OS(=O)(=O)O)no1)C(=N)N [Example 37, (1R,4S)-4-(5-(2-(1-methylguanidino)ethyl)isoxazol-3-yl)-6-oxo-5,7-diazaspiro[bicycle [3.2.1]octane-2,1′-cyclopropan]-7-yl sulfate] | C (C: 16-128 μg/mL) | A (A: <8 μg/mL) | A (A: <8 μg/mL) | B (B: 8-16 μg/mL) | B (B: 8-16 μg/mL) | A (A: <8 μg/mL) | A (A: <8 μg/mL) | C (C: 16-128 μg/mL) | C (C: 16-128 μg/mL) | A (A: <8 μg/mL) | A (A: <8 μg/mL) | A (A: <8 μg/mL) | A (A: <8 μg/mL) | A (A: <8 μg/mL) | A (A: <8 μg/mL) | B (B: 8-16 μg/mL)
3 | CN(Cc1cc([C@@H]2CC3(CC3)[C@@H]3CN2C(=O)N3OS(=O)(=O)O)no1)C(=N)N [Example 33, (1R,4S)-4-(5-((1-methylguanidino)methyl)isoxazol-3-yl)-6-oxo-5,7-diazaspiro[bicycle [3.2.1]octane-2,1′-cyclopropan]-7-yl sulfate] | C (C: 16-128 μg/mL) | B (B: 8-16 μg/mL) | A (A: <8 μg/mL) | C (C: 16-128 μg/mL) | C (C: 16-128 μg/mL) | B (B: 8-16 μg/mL) | A (A: <8 μg/mL) | C (C: 16-128 μg/mL) | C (C: 16-128 μg/mL) | A (A: <8 μg/mL) | A (A: <8 μg/mL) | A (A: <8 μg/mL) | A (A: <8 μg/mL) | A (A: <8 μg/mL) | A (A: <8 μg/mL) | B (B: 8-16 μg/mL)
4 | N[C@H]1C[C@@H](c2nnc([C@@H]3CC4(CC4)[C@@H]4CN3C(=O)N4OS(=O)(=O)O)o2)C1 [Example 15, (1R,4S)-4-(5-((1S,3R)-3-aminocyclobutyl)-1,3,4-oxadiazol-2-yl)-6-oxo-5,7-diazaspiro [bicyclo[3.2.1]octane-2,1′-cyclopropan]-7-yl sulfate] | C (C: 16-128 μg/mL) | A (A: <8 μg/mL) | A (A: <8 μg/mL) | A (A: <8 μg/mL) | B (B: 8-16 μg/mL) | A (A: <8 μg/mL) | A (A: <8 μg/mL) | C (C: 16-128 μg/mL) | C (C: 16-128 μg/mL) | A (A: <8 μg/mL) | A (A: <8 μg/mL) | A (A: <8 μg/mL) | A (A: <8 μg/mL) | A (A: <8 μg/mL) | A (A: <8 μg/mL) | B (B: 8-16 μg/mL)
5 | NCCCCc1nnc([C@@H]2CC3(CC3)[C@@H]3CN2C(=O)N3OS(=O)(=O)O)o1 [Example 7, (1R,4S)-4-(5-(4-aminobutyl)-1,3,4-oxadiazol-2-yl)-6-oxo-5,7-diazaspiro[bicycle[3.2.1]octane-2,1′-cyclopropan]-7-yl sulfate] | C (C: 16-128 μg/mL) | B (B: 8-16 μg/mL) | A (A: <8 μg/mL) | B (B: 8-16 μg/mL) | B (B: 8-16 μg/mL) | B (B: 8-16 μg/mL) | A (A: <8 μg/mL) | C (C: 16-128 μg/mL) | B (B: 8-16 μg/mL) | A (A: <8 μg/mL) | A (A: <8 μg/mL) | A (A: <8 μg/mL) | A (A: <8 μg/mL) | A (A: <8 μg/mL) | A (A: <8 μg/mL) | B (B: 8-16 μg/mL)
